PMC6471485, “Selective Inhibitors of a Human Prolyl Hydroxylase (OGFOD1) Involved in Ribosomal Decoding” (Chemistry (Weinheim an Der Bergstrasse, Germany), 2019)
Entries after “also recorded” stand apart in the source; their conditions may differ.

Key:
OGFOD1 [1] = molecular target: T1, OGFOD1 (Homo sapiens, UniProt Q8N543); assay: CPMG-edited 1H NMR binding experiment with OGFOD1; details: 30 µM inhibitor, 30 µM OGFOD1
T1 sequence (Q8N543 1-542): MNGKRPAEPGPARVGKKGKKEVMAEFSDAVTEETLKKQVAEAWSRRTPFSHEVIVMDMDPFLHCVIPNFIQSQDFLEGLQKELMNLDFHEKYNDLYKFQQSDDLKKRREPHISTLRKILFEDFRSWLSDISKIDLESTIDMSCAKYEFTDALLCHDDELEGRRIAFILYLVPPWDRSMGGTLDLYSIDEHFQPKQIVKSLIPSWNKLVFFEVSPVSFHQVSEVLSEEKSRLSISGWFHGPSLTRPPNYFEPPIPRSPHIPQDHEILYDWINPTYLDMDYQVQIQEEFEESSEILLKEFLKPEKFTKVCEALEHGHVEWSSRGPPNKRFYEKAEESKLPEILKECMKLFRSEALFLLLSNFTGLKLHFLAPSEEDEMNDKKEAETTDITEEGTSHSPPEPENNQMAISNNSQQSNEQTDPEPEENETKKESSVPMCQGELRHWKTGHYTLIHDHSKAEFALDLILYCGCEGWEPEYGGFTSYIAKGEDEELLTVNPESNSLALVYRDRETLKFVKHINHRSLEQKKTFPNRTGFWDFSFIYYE
Procedure: RapidFire integrator software (Agilent). Percent conversion was calculated in Excel, and IC50 curves were generated using Prism v. 7.0 (GraphPad).
Differential Scanning Fluorimetry (DSF) Assays
Assays consisted of enzyme (2 µM), inhibitor (200 µM), MnCl2 (50 µM), and SYPRO Orange (1:5000 dilution), all prepared in 50 mM HEPES, pH 7.5. Assays were conducted using white 96-well RT-PCR plates. An Opticon thermal cycler (MJ Research Inc) was used to control temperature and measure fluorescence. Data were processed using the OpticonMONITOR Analysis Software, while curve fitting was performed in Prism […]
Stable small-molecule inhibitor conformations were investigated using the MM2 force field method in ChemBio3D 11.0 (PerkinElmer Informatics). Protein structures were aligned using PyMOL version 2.0 (Schrödinger, LLC). The small-molecule inhibitors were then modelled into the protein active sites, overlaying them with the already contained inhibitor, if applicable (e.g., FG2216 with PHD2, PDB 3HQU; N-oxalylglycine with OGFOD1, PDB 4NHX). […]
CPMG Binding Experiments: Binding of the inhibitors to the proteins was monitored using Carr-Purcell-Meiboom-Gill (CPMG)-edited 1H spectra. […]
(§1) Competition Experiments by 2OG Displacement: 2OG displacement assays[12] were performed using CPMG-edited 1H spectra. […] The 2OG methylene resonance at 2.35 ppm was monitored. […]

OGFOD1 [2] = molecular target: T1, OGFOD1; assay: 2OG displacement from OGFOD1 by CPMG-edited 1H NMR; type: binding; details: 10 µM 2OG, 10 µM OGFOD1, 70 µM inhibitor
Procedure: total echo time of 40 ms, a relaxation delay of 2 s, with 256 scans. Water suppression was achieved by presaturation. Samples contained 30 µM apo-PHD2181-426 or OGFOD1, supplemented with 60 µM Zn(II), 30 µM of inhibitor, all in 50 mM Tris-d11, pH 7.5, 10 % D2O, […]
wLOGSY Binding Experiments: For water-ligand observed gradient spectroscopy (wLOGSY) analyses, typical experimental parameters were the following: mixing time, 1 s; relaxation delay, 2 s; number of transients, 512. Solvent excitation was achieved using a 16-ms 180° selective rectangular shape pulse with 1,000 points (Squa100.1000) set at the H2O frequency. […]
as §1
HeLa cells were cultured in DMEM media supplemented with 10 % fetal bovine serum, 4 mM L-glutamine, 100 U/mL penicillin, and 100 µg/mL streptomycin. […] Cell extracts were analyzed by SDS-PAGE, electroblotted onto PVDF membranes (Millipore) and probed with anti-HIF-1α antibody (clone 54, BD Transduction Laboratories) at 1:1000 dilution for 1 h at room temperature. […] Target proteins were detected with SuperSignal Chemiluminescent […]
Figure S15. Single-concentration qualitative 2OG displacement as monitored by CPMG-edited 1H NMR spectroscopy. […]

Structure (SMILES) | binding to OGFOD1 by 1H CPMG NMR, in words (OGFOD1 [1]; listed as CCT3) | displacement of bound 2OG from OGFOD1, in words (OGFOD1 [2]) | binding to OGFOD1 by 1H CPMG NMR, in words (OGFOD1 [1]; listed as CCT4)
Cn1c(O)c(C(=O)CCc2ccccc2)c(=O)n(C)c1=O [compound 26] | strong binding; also recorded: strongly bind to OGFOD1 | capable of displacing bound 2OG from the active site of OGFOD1 | 
Cn1c(O)c(C(=O)CCc2cccs2)c(=O)n(C)c1=O [compound 42] |  | capable of displacing bound 2OG from the active site of OGFOD1 | strong binding; also recorded: strongly bind to OGFOD1
